Assays:
[1] = tested on: human skin strips; experiment: Permeability of ascorbic acid to the tissue of human skin strips (modified Bronov diffusion cell); type: in vitro ADME; details: 100 mM (3.38% w/w; PBS(−)) on keratinized layer, re-dosed at 4 and 17 h, 24 hours; compared with unmodified vitamin C; FIG. 3
Protocol: A human skin section extracted from the right abdominal part of a volunteer with an informed consent was vertically split into small strips, which were set in a modified Bronov diffusion cell chamber. With the underside of the skin immersed in DMEM (2 mL) to supply nutrients, the keratinized layer was aerated with 5% CO2 to maintain the pH of the medium at 7.25. […] The total quantity of vitamin C (the sum of reduced and oxidized forms of vitamin C) and the quantity of reduced form of vitamin C in the epidermis and the dermis were measured; the total quantity of vitamin C was measured in the presence of 16 mM dithiothreitol as a reducing agent, whereas the quantity of reduced form of vitamin C was measured without adding any such reducing agent. The measured values were used to calculate the proportion of total vitamin C as occupied by reduced form of vitamin C. Similarly, 6-O-arachidonoyl ascorbate and 6-O-docosahexaenoyl ascorbate, as well as ascorbic acid (comparison) were evaluated and the results are also shown in FIG. 3.

[2] = tested on: human skin keratocytes HaCaT; experiment: Protective effect on apoptosis of HaCaT keratocytes under UVA irradiation (WST-1 viability); type: cell-based; details: 200 μM added 2 hours before 32-48 mJ/cm^2 UVA; WST-1 24 hours after irradiation; FIG. 2
Protocol: Human skin keratocytes HaCaT (the cell line granted by courtesy of Dr. Fusenig at University of Heidelberg) were inoculated on a 24-well plate at a density of 10,000 cells/well in a 10% fetal bovine serum (FBS) containing Dulbecco modified Eagle medium (DMEM); 18 hours later, the medium was irradiated with 32-48 mJ/cm^2 of UVA. Two hours before the irradiation, 100-200 μM of 6-O-dihomo-γ-linolenoyl ascorbate had been added to the medium but it was removed just before the irradiation and the medium was rinsed. UVA irradiation was performed in PBS but in the absence of the drug; after the irradiation, culture was continued in the 10% FBS containing DMEM and 24 hours after the irradiation, the cell viability was evaluated by a mitochondrial dehydrogenase activity assay method using 2-(4-iodophenyl)-3-(4-nitrophenyl)-5-(2,4-disulfophenyl)-2H-tetrazolium monosodium salt (WST-1).

[3] = target: aldose reductase (Homo sapiens, UniProt P15121); details: cited from earlier work
[4] = tested on: streptozotocin-induced diabetic model; details: in vivo; cited from earlier work

Compound	amount of vitamin C in the dermis [1]	viability of human skin keratocytes [2]	aldose reductase inhibitory action [3]	efficacy in streptozotocin-induced diabetic model [4]
CCCCC/C=C\C/C=C\C/C=C\C/C=C\CCCC(=O)OC[C@H](O)[C@H]1OC(=O)C(O)=C1O [6-O-arachidonoyl ascorbate]	increased markedly			
CCCCC/C=C\C/C=C\C/C=C\CCCCCCC(=O)OC[C@H](O)[C@H]1OC(=O)C(O)=C1O [6-O-dihomo-γ-linolenoyl ascorbate]	increased markedly	improved the viability		
CCCCC/C=C\C/C=C\C/C=C\CCCCC(=O)OC[C@H](O)[C@H]1OC(=O)C(O)=C1O [6-O-γ-linolenoyl ascorbate]			aldose reductase inhibitory action	effective
